Assay results: publication PMC12415213, “A genome-scale drug discovery pipeline uncovers therapeutic targets and a unique p97 allosteric binding site in Schistosoma mansoni” (Proceedings of the National Academy of Sciences of the …, 2025)
Read-outs that look alike come from different tables or passages of the source.

How the values were obtained:
adult S. mansoni [1] = assay: Dose-response of compounds on adult worms (attachment to culture substrate, EC50); type: cell-based, Schistosoma mansoni
Protocol: (§1) DMSO). All selected compounds were obtained from commercial vendors (Medchemexpress, Selleck Chemicals, Sigma-Aldrich, ApexBio, Tocris, Santa Cruz Biotechnology, and Cayman Chemical Company) (Dataset S4) with […]
the activity of the desired compounds. Roughly 5 adult worm pairs were placed in 3mL Basch medium in a 12-well culture vessel, and incubated at 37° C, 5% CO2 for the length of the experiment. Compound was administered at D0, D1, and D2, media and drug refreshed every 24 hr. Worms were then allowed to remain in culture until D5, where a final assessment of worm attachment to tissue culture substate was made by light microscopy.
Observations on movement and morphology were also recorded. A negative control (0.1% DMSO) and positive control (PZQ; 10 µM in 0.1% DMSO) were included in each experiment, and each experiment was repeated in triplicate for validation. For compounds that caused complete detachment in replicate experiments, the treatment was expanded to three concentrations (10 µM, 5 µM, and 1 µM) following the same treatment schedule and controls as detailed above.
Each titration experiment was performed in triplicate according to the treatment regimen described above, using DMSO and PZQ as appropriate controls. Morphologies and motility were assessed by light microscopy, and dose-response curves were calculated using the primary readout of parasite attachment to tissue culture substrate in GraphPad Prism.
(§2) For drug treatment studies, 10 male adult worms (single or paired with females) were supplemented with either 0.1% DMSO or inhibitor (0.1% DMSO final). For all experiments assessing on-target effects of potential parasite […]
(§3) After 48 hr, male parasites were separated […]
(§4) further processing. Male worm samples were homogenized with a pestle in 50 µL lysis buffer containing 2X […]
(Roche, cOmplete Mini, EDTA-free Tablets) and 10 mM DTT. The lysates were then sonicated on high for 5 min (30 sec on, 30 sec off) using a Bioruptor UCD-200. […]
Compounds were tested from 100 μM – 1 nM. Values were calculated using Prism.

[2] = test system: K48 polyubiquitinated proteins in adult S. mansoni; assay: Western blot of K48 polyubiquitinated proteins in lysate of drug-treated worms; type: cell-based, Schistosoma mansoni; conditions: adult worm lysate after 48 h of treatment
Protocol: as §1
the activity of the desired compounds. Roughly 5 adult worm pairs were placed in 3mL Basch medium in a 12-well culture vessel, and incubated at 37° C, 5% CO2 for the length of the experiment. […]
as §2, §3, §4
(Roche, cOmplete Mini, EDTA-free Tablets) and 10 mM DTT. The lysates were then sonicated on high for 5 min (30 sec on, 30 sec off) using a Bioruptor UCD-200. Lysates were centrifuged for 5 min at 10,000 g to remove […]
debris. Total protein was measured using the Detergent Compatible Bradford Assay (Pierce). 50 µg of protein samples denatured in SDS Sample buffer (95°C for 5 min) were separated on a Bio-Rad 4-20% TGX Stain-Free gel along with Precision Plus Protein Dual Color Standards (Bio-Rad) as a marker. Proteins were then transferred to a nitrocellulose membrane (Bio-Rad). The membrane was blocked in a 1:5 solution of Li-Cor Odyssey Blocking buffer in PBST for 1 hr before being immunoblotted overnight at 4°C with 1:500 K48-linkage Specific […]
(1:10,000) (Developmental Studies Hybridoma Bank, JLA20) diluted in a 1:5 solution of Li-Cor Odyssey Blocking buffer in PBST. The membrane was washed 3x in TBST and then incubated in 1:5 Li-Cor Odyssey […]
in TBST 3x before being imaged on a LiCor Odyssey Infrared Imager. […]

adult S. mansoni [3] = test system: adult S. mansoni; parameters: method as in PMID 32973031; conditions: adult parasites; cited from earlier work
[4] = biological target: S. mansoni p97 (Smp_018240) (Schistosoma mansoni, UniProt G4M0P7); type: biochemical; conditions: recombinant full-length enzyme, Kinase-Glo, 100 μM to 1 nM
Chain of S. mansoni p97 (Smp_018240) (G4M0P7 entry or part of it): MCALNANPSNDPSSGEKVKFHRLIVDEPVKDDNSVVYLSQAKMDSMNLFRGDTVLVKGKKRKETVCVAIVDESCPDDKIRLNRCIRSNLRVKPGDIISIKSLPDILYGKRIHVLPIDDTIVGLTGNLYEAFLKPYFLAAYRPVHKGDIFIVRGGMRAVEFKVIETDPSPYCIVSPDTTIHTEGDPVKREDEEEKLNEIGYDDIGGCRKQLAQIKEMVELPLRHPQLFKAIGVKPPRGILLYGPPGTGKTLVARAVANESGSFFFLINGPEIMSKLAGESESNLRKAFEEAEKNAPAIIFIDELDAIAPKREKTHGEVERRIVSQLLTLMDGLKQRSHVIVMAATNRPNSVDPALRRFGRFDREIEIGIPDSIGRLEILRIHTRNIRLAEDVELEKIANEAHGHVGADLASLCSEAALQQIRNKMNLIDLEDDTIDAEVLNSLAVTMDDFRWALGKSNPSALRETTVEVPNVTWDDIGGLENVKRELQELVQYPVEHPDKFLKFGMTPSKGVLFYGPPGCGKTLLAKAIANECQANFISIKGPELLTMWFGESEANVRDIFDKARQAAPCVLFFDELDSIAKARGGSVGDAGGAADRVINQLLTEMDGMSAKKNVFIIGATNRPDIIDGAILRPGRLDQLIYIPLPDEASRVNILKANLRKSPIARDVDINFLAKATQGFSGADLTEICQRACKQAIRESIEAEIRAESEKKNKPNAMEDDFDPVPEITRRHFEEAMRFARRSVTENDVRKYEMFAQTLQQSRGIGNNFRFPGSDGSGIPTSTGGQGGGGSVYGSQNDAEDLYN
Protocol: Evaluation of p97’s ATPase activity and compound potency
For manual ATP consumption assays, 1 µM p97 was incubated with 1% DMSO or inhibitor (1% DMSO final) in assay buffer [50 mM Tris (pH 7.5), 20 mM MgCl2, 1 mM EDTA, 0.5 mM tris(2-carboxyethyl)phosphine (TCEP)] for 5 minutes prior to the addition of 20 µM ATP in a 384-well plate for a total reaction volume of 10 µL, and a final concentration of 500nM enzyme and 10 µM ATP. The reaction was allowed to proceed for 50 minutes at room temperature before adding equivalent volume of Kinase-Glo Plus reagent (Promega), and a further incubation of 10 minutes in the dark. Luminescence was read using a BioTek Synergy 2 plate reader […]
1 μM, 500 nM, 100 nM, 50 nM, 10 nM, 5 nM, 1 nM, and 0 nM) in triplicate, maintaining a concentration of 1% […]
were calculated using GraphPad Prism. […]

HepG2 cells = assay: HepG2 cytotoxicity assay (Cell Titer Glo 2.0); type: cell-based, Homo sapiens; conditions: 72 h

AGI-41998
EC50 (adult S. mansoni [1]; adult worms in vitro, tested 50 μM to 10 nM, readout attachment to culture substrate, read-out: EC50 of commercial inhibitors of human orthologs on adult parasites): 0.71 µM

AG-270
EC50 (adult S. mansoni [1]; read-out: EC50 of commercial inhibitors of human orthologs on adult parasites): 0.18 µM

Cc1cc(OCc2nnc(SC3CCCC3)n2-c2cccnc2)ccc1-c1ccc(S(C)(=O)=O)cc1 [NMS-873]
accumulation of K48 polyubiquitinated proteins by western blot [2]: accumulation of proteins targeted for proteasome-mediated degradation
concentration leading to parasite death in vitro (adult S. mansoni [3]): submicromolar concentrations
IC50 [4]: 0.23 ± 0.075 µM

Cc1cc2c(C(N)=O)cccc2n1-c1nc2c(c(NCc3ccccc3)n1)COCC2 [CB-5083]
accumulation of K48 polyubiquitinated proteins by western blot [2]: accumulation of proteins targeted for proteasome-mediated degradation
concentration leading to parasite death in vitro (adult S. mansoni [3]): submicromolar concentrations
GI50 (HepG2 cells; 50% growth inhibition normalized to time = 0): 0.31 µM
IC50 (HepG2 cells; 50% growth inhibition relative to control): 0.41 µM
EC50 (adult S. mansoni [1]; fraction of worms attached after 72 h drug treatment, refreshed every 24 h, kept until D5, 50 μM - 10 nM, read-out: S. mansoni EC50 (μM) on adult parasites): 0.36 µM
